Results: the supplement of paper PMC10733146

Experiments:
Assay in all cases: viability relative to DMSO control (fraction); higher = less drug effect (more viable cells)
Details in all cases: 48 h
[1] = tested on: primary AML patient cells (S006)
In short: (§1)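 The cells were primary mononuclear tumour cells, either fresh or cryopreserved, isolated by Ficoll from blood or bone marrow or derived from processed lymph node. Each well of a 384-well plate received 4 × 10^4 cells onto compounds pre-plated at five concentrations, with one well per concentration. The medium was RPMI-1640 with penicillin/streptomycin, L-glutamine and human serum, and plates stood at 37 °C and 5% CO2 for 48 h. Viability is reported as CellTiter-Glo luminescence relative to the median of 16 inner DMSO wells.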

[2] = tested on: primary AML patient cells (S012)
In short: as §1

[3] = tested on: primary AML patient cells (S056)
In short: as §1

[4] = tested on: primary AML patient cells (S072)
In short: as §1

[5] = tested on: primary AML patient cells (S025)
In short: as §1

[6] = tested on: primary AML patient cells (S009)
In short: as §1

[7] = tested on: primary MCL patient cells (S063)
In short: as §1

[8] = tested on: primary AML patient cells (S079)
In short: as §1

[9] = tested on: primary T-PLL patient cells (S008)
In short: as §1

[10] = tested on: primary MCL patient cells (S053)
In short: as §1

[11] = tested on: primary FL patient cells (S022)
In short: as §1

[12] = tested on: primary CLL patient cells (S043)
In short: as §1

[13] = tested on: primary ALL patient cells (S048)
In short: as §1

[14] = tested on: primary AML patient cells (S081)
In short: as §1

[15] = tested on: primary AML patient cells (S021)
In short: as §1

[16] = tested on: primary AML patient cells (S017)
In short: as §1

[17] = tested on: primary AML patient cells (S002)
In short: as §1

[18] = tested on: primary BL patient cells (S005)
In short: as §1

[19] = tested on: primary MCL patient cells (S068)
In short: as §1

O=C(O)CSc1cc(NS(=O)(=O)c2ccc(Br)cc2)c2ccccc2c1O [UMI-77]
viability ([1]; 0.024 µM): 1.07
viability ([1]; 0.12 µM): 1.04
viability ([1]; 0.6 µM): 0.979
viability ([1]; 3 µM): 1.01
viability ([1]; 15 µM): 0.467
viability ([2]; 0.024 µM): 1.07
viability ([2]; 0.12 µM): 1.06
viability ([2]; 0.6 µM): 1.09
viability ([2]; 3 µM): 1.04
viability ([2]; 15 µM): 0.715
viability ([3]; 0.024 µM): 0.838
viability ([3]; 0.12 µM): 0.998
viability ([3]; 0.6 µM): 0.836
viability ([3]; 3 µM): 0.999
viability ([3]; 15 µM): 0.434
viability ([4]; 0.024 µM): 0.956
viability ([4]; 0.12 µM): 0.949
viability ([4]; 0.6 µM): 0.94
viability ([4]; 3 µM): 0.994
viability ([4]; 15 µM): 0.777
viability ([5]; 0.024 µM): 1.06
viability ([5]; 0.12 µM): 1.08
viability ([5]; 0.6 µM): 1.03
viability ([5]; 3 µM): 1.18
viability ([5]; 15 µM): 0.46
viability ([6]; 0.024 µM): 0.914
viability ([6]; 0.12 µM): 0.914
viability ([6]; 0.6 µM): 0.802
viability ([6]; 3 µM): 0.571
viability ([6]; 15 µM): 0.0548
viability ([7]; 0.024 µM): 1.06
viability ([7]; 0.12 µM): 1.05
viability ([7]; 0.6 µM): 0.974
viability ([7]; 3 µM): 0.963
viability ([7]; 15 µM): 0.701
viability ([8]; 0.024 µM): 0.917
viability ([8]; 0.12 µM): 0.932
viability ([8]; 0.6 µM): 0.997
viability ([8]; 3 µM): 0.989
viability ([8]; 15 µM): 0.79
viability ([9]; 0.024 µM): 0.976
viability ([9]; 0.12 µM): 0.968
viability ([9]; 0.6 µM): 0.91
viability ([9]; 3 µM): 0.948
viability ([9]; 15 µM): 0.815
viability ([10]; 0.024 µM): 1.07
viability ([10]; 0.12 µM): 0.99
viability ([10]; 0.6 µM): 0.818
viability ([10]; 3 µM): 0.873
viability ([10]; 15 µM): 0.191
viability ([11]; 0.024 µM): 0.967
viability ([11]; 0.12 µM): 0.981
viability ([11]; 0.6 µM): 0.913
viability ([11]; 3 µM): 0.897
viability ([11]; 15 µM): 0.521
viability ([12]; 0.024 µM): 0.997
viability ([12]; 0.12 µM): 0.981
viability ([12]; 0.6 µM): 0.974
viability ([12]; 3 µM): 0.979
viability ([12]; 15 µM): 0.748
viability ([13]; 0.024 µM): 0.913
viability ([13]; 0.12 µM): 0.88
viability ([13]; 0.6 µM): 0.742
viability ([13]; 3 µM): 0.582
viability ([13]; 15 µM): 0.128
viability ([14]; 0.024 µM): 0.934
viability ([14]; 0.12 µM): 0.984
viability ([14]; 0.6 µM): 0.919
viability ([14]; 3 µM): 0.812
viability ([14]; 15 µM): 0.329
viability ([15]; 0.024 µM): 0.839
viability ([15]; 0.12 µM): 0.917
viability ([15]; 0.6 µM): 0.971
viability ([15]; 3 µM): 0.961
viability ([15]; 15 µM): 0.623
viability ([16]; 0.024 µM): 1.01
viability ([16]; 0.12 µM): 1.02
viability ([16]; 0.6 µM): 0.983
viability ([16]; 3 µM): 0.99
viability ([16]; 15 µM): 0.436
viability ([17]; 0.024 µM): 0.893
viability ([17]; 0.12 µM): 0.926
viability ([17]; 0.6 µM): 0.948
viability ([17]; 3 µM): 0.937
viability ([17]; 15 µM): 1.03
viability ([18]; 0.024 µM): 0.92
viability ([18]; 0.12 µM): 0.902
viability ([18]; 0.6 µM): 0.783
viability ([18]; 3 µM): 0.812
viability ([18]; 15 µM): 0.276
viability ([19]; 0.024 µM): 0.957
viability ([19]; 0.12 µM): 0.817
viability ([19]; 0.6 µM): 0.767
viability ([19]; 3 µM): 0.666
viability ([19]; 15 µM): 0.318
